The record followed here is US20020098248A1, “Method for treating and/or preventing infections caused by methicillin-resistant Staphylococcus aureus” (priority 2000, published 2002).

The assay has as its system Staphylococcus, particularly MRSA. Nature of the assay: Examination of catechin for antimicrobial effect. It counts as cell-based. As to conditions: catechin only, even if it has a high concentration.

In the case of catechin, the “antimicrobial effect against Staphylococcus, particularly MRSA” value is recorded as “does not provide a desired antimicrobial effect”.
